Test results: PubChem BioAssay (NCI)
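Compound exposure: 48 hours, 5 concentrations, 96-well plates. GI50: concentration for 50% inhibition of growth. TGI is the concentration that stops growth completely.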

What was measured:
Assay in all cases: DTP human tumour cell line panel, 48 h
UACC-257 melanoma = system: UACC-257 melanoma
RXF 393 renal = system: RXF 393 renal
SF-295 CNS = system: SF-295 CNS
HCT-116 colon = system: HCT-116 colon
SK-OV-3 ovarian = system: SK-OV-3 ovarian
OVCAR-3 ovarian = system: OVCAR-3 ovarian
HT29 colon = system: HT29 colon
BT-549 breast = system: BT-549 breast
SK-MEL-5 melanoma = system: SK-MEL-5 melanoma
786-0 renal = system: 786-0 renal
OVCAR-4 ovarian = system: OVCAR-4 ovarian
PC-3 prostate = system: PC-3 prostate
SR leukemia = system: SR leukemia
U251 CNS = system: U251 CNS
OVCAR-5 ovarian = system: OVCAR-5 ovarian
A549 NSCLC = system: A549 NSCLC
DU-145 prostate = system: DU-145 prostate
NCI-H23 lung = system: NCI-H23 lung
HCT-15 colon = system: HCT-15 colon
MOLT-4 leukemia = system: MOLT-4 leukemia
K-562 leukemia = system: K-562 leukemia
OVCAR-8 ovarian = system: OVCAR-8 ovarian
T-47D breast = system: T-47D breast
IGROV1 ovarian = system: IGROV1 ovarian
MDA-MB-231 breast = system: MDA-MB-231 breast
HOP-62 NSCLC = system: HOP-62 NSCLC
MDA-MB-468 breast = system: MDA-MB-468 breast
MALME-3M melanoma = system: MALME-3M melanoma
NCI-H226 lung = system: NCI-H226 lung
UACC-62 melanoma = system: UACC-62 melanoma
SK-MEL-28 melanoma = system: SK-MEL-28 melanoma
SN12C renal = system: SN12C renal
HCC-2998 colon = system: HCC-2998 colon
M14 melanoma = system: M14 melanoma
CCRF-CEM leukemia = system: CCRF-CEM leukemia
MCF7 breast = system: MCF7 breast
LOX IMVI melanoma = system: LOX IMVI melanoma
UO-31 renal = system: UO-31 renal
RPMI-8226 leukemia = system: RPMI-8226 leukemia
A498 renal = system: A498 renal
TK-10 renal = system: TK-10 renal
HS 578T breast = system: HS 578T breast
COLO 205 colon = system: COLO 205 colon
SF-539 CNS = system: SF-539 CNS
SK-MEL-2 melanoma = system: SK-MEL-2 melanoma
NCI-H460 lung = system: NCI-H460 lung
NCI/ADR-RES ovarian = system: NCI/ADR-RES ovarian
CAKI-1 renal = system: CAKI-1 renal
SF-268 CNS = system: SF-268 CNS
NCI-H522 lung = system: NCI-H522 lung
KM12 colon = system: KM12 colon
MDA-MB-435 = system: MDA-MB-435
HOP-92 NSCLC = system: HOP-92 NSCLC
SNB-19 CNS = system: SNB-19 CNS
ACHN renal = system: ACHN renal
EKVX NSCLC = system: EKVX NSCLC

Structure (SMILES): COc1ccc(C(=O)/C=C/c2cccc(Br)c2)cc1S(N)(=O)=O
- GI50 (UACC-257 melanoma): 3.27 µM
- TGI (UACC-257 melanoma): 14.5 µM
- GI50 (RXF 393 renal): 1.6 µM
- TGI (RXF 393 renal): 3.2 µM
- GI50 (SF-295 CNS): 2.09 µM
- TGI (SF-295 CNS): 6.44 µM
- GI50 (HCT-116 colon): 1.04 µM
- TGI (HCT-116 colon): 2.21 µM
- GI50 (SK-OV-3 ovarian): 4.06 µM
- TGI (SK-OV-3 ovarian): 15 µM
- GI50 (OVCAR-3 ovarian): 1.29 µM
- TGI (OVCAR-3 ovarian): 3.17 µM
- GI50 (HT29 colon): 1.61 µM
- TGI (HT29 colon): 3.28 µM
- GI50 (BT-549 breast): 1.51 µM
- TGI (BT-549 breast): 3.46 µM
- GI50 (SK-MEL-5 melanoma): 2.31 µM
- TGI (SK-MEL-5 melanoma): 6.38 µM
- GI50 (786-0 renal): 1.63 µM
- TGI (786-0 renal): 3.33 µM
- GI50 (OVCAR-4 ovarian): 4.08 µM
- TGI (OVCAR-4 ovarian): 17.3 µM
- GI50 (PC-3 prostate): 2.02 µM
- TGI (PC-3 prostate): 4.93 µM
- GI50 (SR leukemia): 0.732 µM
- TGI (SR leukemia): 3.54 µM
- GI50 (U251 CNS): 1.34 µM
- TGI (U251 CNS): 2.69 µM
- GI50 (OVCAR-5 ovarian): 1.74 µM
- TGI (OVCAR-5 ovarian): 4.25 µM
- GI50 (A549 NSCLC): 2.82 µM
- TGI (A549 NSCLC): 10.2 µM
- GI50 (DU-145 prostate): 3.56 µM
- TGI (DU-145 prostate): 12.8 µM
- GI50 (NCI-H23 lung): 1.77 µM
- TGI (NCI-H23 lung): 3.43 µM
- GI50 (HCT-15 colon): 1.01 µM
- TGI (HCT-15 colon): 2.39 µM
- GI50 (MOLT-4 leukemia): 2.17 µM
- TGI (MOLT-4 leukemia): 4.71 µM
- GI50 (K-562 leukemia): 1.35 µM
- TGI (K-562 leukemia): 4.41 µM
- GI50 (OVCAR-8 ovarian): 2.28 µM
- TGI (OVCAR-8 ovarian): 10.6 µM
- GI50 (T-47D breast): 2.13 µM
- TGI (T-47D breast): 6.01 µM
- GI50 (IGROV1 ovarian): 2.24 µM
- TGI (IGROV1 ovarian): 8.6 µM
- GI50 (MDA-MB-231 breast): 2.45 µM
- TGI (MDA-MB-231 breast): 6.75 µM
- GI50 (HOP-62 NSCLC): 2.05 µM
- TGI (HOP-62 NSCLC): 5.74 µM
- GI50 (MDA-MB-468 breast): 1.39 µM
- TGI (MDA-MB-468 breast): 2.87 µM
- GI50 (MALME-3M melanoma): 3.19 µM
- TGI (MALME-3M melanoma): 14 µM
- GI50 (NCI-H226 lung): 2.81 µM
- TGI (NCI-H226 lung): 11.4 µM
- GI50 (UACC-62 melanoma): 1.68 µM
- TGI (UACC-62 melanoma): 3.89 µM
- GI50 (SK-MEL-28 melanoma): 2.15 µM
- TGI (SK-MEL-28 melanoma): 5.46 µM
- GI50 (SN12C renal): 1.44 µM
- TGI (SN12C renal): 3.48 µM
- GI50 (HCC-2998 colon): 1.45 µM
- TGI (HCC-2998 colon): 2.99 µM
- GI50 (M14 melanoma): 1.81 µM
- TGI (M14 melanoma): 4.64 µM
- GI50 (CCRF-CEM leukemia): 2.54 µM
- TGI (CCRF-CEM leukemia): 6.12 µM
- GI50 (MCF7 breast): 1.58 µM
- TGI (MCF7 breast): 5.22 µM
- GI50 (LOX IMVI melanoma): 1.24 µM
- TGI (LOX IMVI melanoma): 2.48 µM
- GI50 (UO-31 renal): 1.29 µM
- TGI (UO-31 renal): 2.7 µM
- GI50 (RPMI-8226 leukemia): 2.05 µM
- TGI (RPMI-8226 leukemia): 5.52 µM
- GI50 (A498 renal): 13.8 µM
- TGI (A498 renal): 27 µM
- GI50 (TK-10 renal): 2.23 µM
- TGI (TK-10 renal): 11.9 µM
- GI50 (HS 578T breast): 16 µM
- TGI (HS 578T breast): 68.6 µM
- GI50 (COLO 205 colon): 1.92 µM
- TGI (COLO 205 colon): 3.51 µM
- GI50 (SF-539 CNS): 1.69 µM
- TGI (SF-539 CNS): 3.44 µM
- GI50 (SK-MEL-2 melanoma): 8.73 µM
- TGI (SK-MEL-2 melanoma): 21.9 µM
- GI50 (NCI-H460 lung): 3.16 µM
- TGI (NCI-H460 lung): 11.4 µM
- GI50 (NCI/ADR-RES ovarian): 2.21 µM
- TGI (NCI/ADR-RES ovarian): 7.13 µM
- GI50 (CAKI-1 renal): 2.28 µM
- TGI (CAKI-1 renal): 7.89 µM
- GI50 (SF-268 CNS): 3.02 µM
- TGI (SF-268 CNS): 12.7 µM
- GI50 (NCI-H522 lung): 1.63 µM
- TGI (NCI-H522 lung): 3.23 µM
- GI50 (KM12 colon): 1.33 µM
- TGI (KM12 colon): 3.29 µM
- GI50 (MDA-MB-435): 2.06 µM
- TGI (MDA-MB-435): 7.14 µM
- GI50 (HOP-92 NSCLC): 1.8 µM
- TGI (HOP-92 NSCLC): 11.8 µM
- GI50 (SNB-19 CNS): 2.91 µM
- TGI (SNB-19 CNS): 12 µM
- GI50 (ACHN renal): 1.67 µM
- TGI (ACHN renal): 3.11 µM
- GI50 (EKVX NSCLC): 5.24 µM
- TGI (EKVX NSCLC): 18.5 µM
